Laboratory results reported in patent publication US7893031B2, “Neuronal differentiation inhibitor peptide and use thereof” (Toagosei Co., Ltd., priority 2005, dated 2011).
No end group written: not given here.

Tested on: adipose stem cells procured from humans
Test: Evaluation of neuronal differentiation inhibitor activity of the synthetic peptides (immunostaining for MAPs and NeuN neuron markers, confocal laser microscopy)
Type: cell-based
Settings: culture of human adipose stem cells, 24 hours after peptide addition; for degree of neuronal differentiation (neuron markers MAPs and NeuN) when added together with VHL peptide: sample peptide added together with VHL peptide (comparative sample 1), each about 100 ng/mL
Protocol: Each sample obtained in example 1 was analyzed for the neuronal differentiation inhibitor activity.
In particular, each sample peptide together with the peptide of comparative sample 1 (hereinafter referred to as VHL peptide) was added to and incubated in a culture of adipose stem cells procured from humans. The addition concentration of each peptide was about 100 ng/mL. For comparison, a culture containing VHL peptide alone was incubated in a similar manner.
At 24 hours after peptide addition, evaluation was carried out by a standard immune antibody procedure. Specifically, MAPs ([…]) and NeuN (neuronal nuclei) were added as neuron markers, and the degree of neuronal differentiation was evaluated by confocal laser microscopy. MAPs is a marker that can stain (detect) broadly, from relatively immature neurons to mature neurons. NeuN is a marker that can specifically stain (detect) mature neurons.

Row | Substance | degree of neuronal differentiation (neuron markers MAPs and NeuN) (VHL peptide alone, about 100 ng/mL) | degree of neuronal differentiation (neuron markers MAPs and NeuN) when added together with VHL peptide
1 | YARAAARQARA-TLKERCLQVVRSLVK (YARAAARQARATLKERCLQVVRSLVK) [VHL peptide, reference compound] | significant neuronal differentiation | –
2 | YARAAARQARA-TLVSLCQTVLMSHID (YARAAARQARATLVSLCQTVLMSHID; not fully specified (C-terminus); printed as YARAAARQARA-TLVSLCQTVLMSHID) [Sample 2, PTD4 domain plus 15 N-terminal residues of the BC-box of C. elegans elongin-A] | – | no significant neuronal differentiation was observed
3 | YARAAARQARA-SLQTLCEISLMRNHS (YARAAARQARASLQTLCEISLMRNHS; not fully specified (C-terminus); printed as YARAAARQARA-SLQTLCEISLMRNHS) [Sample 3, PTD4 domain plus 15 N-terminal residues of the BC-box of S. cerevisiae elongin-A] | – | no significant neuronal differentiation was observed
4 | YARAAARQARA-TLHQQCIRVLKNNID (YARAAARQARATLHQQCIRVLKNNID; not fully specified (C-terminus); printed as YARAAARQARA-TLHQQCIRVLKNNID) [Sample 1, PTD4 domain plus 15 N-terminal residues of the BC-box of human elongin-A] | – | no significant neuronal differentiation was observed
